# pKi: −log10 of the molar value.
# Molecular target: T1, rat mGluR5 receptors (Rattus norvegicus, UniProt P31424)
# T1 construct: rat cerebro-cortical membrane preparation was used; from tissue; host or cells: rat cerebral cortex membranes
# Assay: mGluR5 receptor binding test, rat cerebro-cortical membrane preparation, [3H]-M-MPEP
# Settings: affinity for rat mGluR5 receptors; [3H]-M-MPEP (2 nM) radioligand
# How it was run: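 Radioligand binding used rat cerebro-cortical membranes with 2 nM [3H]-M-MPEP. Nonspecific binding was defined with 10 μM M-MPEP. The method follows a modification of a published procedure.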
# T1 sequence (P31424 21-1203): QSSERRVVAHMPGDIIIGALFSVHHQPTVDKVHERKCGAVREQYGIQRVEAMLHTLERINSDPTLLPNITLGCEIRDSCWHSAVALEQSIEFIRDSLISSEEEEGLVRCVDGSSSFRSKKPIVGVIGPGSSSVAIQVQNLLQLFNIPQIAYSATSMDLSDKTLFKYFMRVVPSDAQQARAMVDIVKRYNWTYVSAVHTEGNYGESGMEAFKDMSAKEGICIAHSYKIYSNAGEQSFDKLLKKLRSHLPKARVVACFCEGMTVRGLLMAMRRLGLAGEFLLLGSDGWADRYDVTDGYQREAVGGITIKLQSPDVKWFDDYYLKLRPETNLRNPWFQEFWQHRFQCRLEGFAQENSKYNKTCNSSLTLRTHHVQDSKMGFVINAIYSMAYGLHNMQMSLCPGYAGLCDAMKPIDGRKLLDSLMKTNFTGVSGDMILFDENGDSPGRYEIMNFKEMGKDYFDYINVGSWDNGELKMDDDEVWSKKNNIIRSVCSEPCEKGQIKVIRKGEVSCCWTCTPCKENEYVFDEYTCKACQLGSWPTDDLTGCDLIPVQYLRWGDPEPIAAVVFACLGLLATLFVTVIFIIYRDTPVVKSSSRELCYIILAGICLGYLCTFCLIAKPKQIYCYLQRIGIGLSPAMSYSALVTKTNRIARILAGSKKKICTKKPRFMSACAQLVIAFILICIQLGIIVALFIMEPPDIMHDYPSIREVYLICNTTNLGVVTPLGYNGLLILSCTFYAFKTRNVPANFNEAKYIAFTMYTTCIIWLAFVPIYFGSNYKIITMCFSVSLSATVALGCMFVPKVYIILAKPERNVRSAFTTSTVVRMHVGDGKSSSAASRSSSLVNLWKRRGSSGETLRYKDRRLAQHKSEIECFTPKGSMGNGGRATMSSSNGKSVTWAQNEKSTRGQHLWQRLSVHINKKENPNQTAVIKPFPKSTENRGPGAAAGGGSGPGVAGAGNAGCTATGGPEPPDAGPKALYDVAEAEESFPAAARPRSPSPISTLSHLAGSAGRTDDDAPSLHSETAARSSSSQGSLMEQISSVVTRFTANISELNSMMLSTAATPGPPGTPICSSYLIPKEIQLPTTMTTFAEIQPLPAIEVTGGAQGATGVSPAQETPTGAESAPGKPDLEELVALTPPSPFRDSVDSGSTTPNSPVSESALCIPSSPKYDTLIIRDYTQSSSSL
row,SMILES,pKi
1,COc1ccc(S(=O)(=O)c2cnc3cc(Cl)ccc3c2N2CCOCC2)cc1 [Compound 322],< 6.30
2,O=S(=O)(c1ccccc1)c1cnc2cc(Cl)ccc2c1N1CCOCC1 [Compound 323],< 6.30
3,O=S(=O)(c1cccc(F)c1)c1cnc2cc(Cl)ccc2c1N1CCOCC1 [Compound 325],< 6.30
4,O=S(=O)(c1ccc(F)c(F)c1)c1cnc2cc(Cl)ccc2c1N1CCOCC1 [Compound 331],< 6.30
5,Cc1cc(C)cc(S(=O)(=O)c2cnc3cc(Cl)ccc3c2N2CCOCC2)c1 [Compound 333],< 6.30
6,O=S(=O)(c1ccc(F)cc1)c1cnc2c(F)cccc2c1N1CCOCC1 [Compound 337],< 6.30
7,COc1ccc(S(=O)(=O)c2cnc3c(F)cccc3c2N2CCOCC2)cc1 [Compound 338],< 6.30
8,O=S(=O)(c1cccc(F)c1)c1cnc2c(F)cccc2c1N1CCOCC1 [Compound 340],< 6.30
9,Cc1ccc(S(=O)(=O)c2cnc3c(F)cccc3c2N2CCOCC2)cc1 [Compound 342],< 6.30
10,N#Cc1ccc2ncc(S(=O)(=O)c3ccc(F)cc3)c(N3CCOCC3)c2c1 [Compound 346],6.30 to 6.70
11,O=S(=O)(c1ccc(Cl)cc1)c1cnc2c(Cl)ccc(Cl)c2c1N1CCOCC1 [Compound 347],6.30 to 6.70
12,O=S(=O)(c1ccc(Cl)cc1)c1cnc2ccc(F)cc2c1N1CCC(F)(F)CC1 [Compound 348],6.30 to 6.70
13,CC1CCN(c2c(S(=O)(=O)c3ccc(F)c(Cl)c3)cnc3ccc(F)cc23)CC1 [Compound 349],6.30 to 6.70
14,O=S(=O)(c1ccc(F)cc1)c1cnc2cc(Cl)ccc2c1N1CCC(CO)CC1 [Compound 350],6.30 to 6.70
15,O=S(=O)(c1cc(F)cc(F)c1)c1cnc2cc(Cl)ccc2c1N1CCC(CO)CC1 [Compound 351],6.30 to 6.70

# Continued, values first:
row,pKi,SMILES
1,6.30 to 6.70,O=S(=O)(c1ccc(Cl)cc1)c1cnc2cc(Cl)ccc2c1N1CCOCC1 [Compound 324]
2,6.30 to 6.70,COc1cccc(S(=O)(=O)c2cnc3cc(Cl)ccc3c2N2CCOCC2)c1 [Compound 326]
3,> 6.70,Cc1ccc(S(=O)(=O)c2cnc3cc(Cl)ccc3c2N2CCOCC2)cc1C [Compound 327]
4,> 6.70,O=S(=O)(c1cccc(Cl)c1)c1cnc2cc(Cl)ccc2c1N1CCOCC1 [Compound 328]
5,> 6.70,Cc1ccc(S(=O)(=O)c2cnc3cc(Cl)ccc3c2N2CCOCC2)cc1Cl [Compound 329]
6,6.30 to 6.70,COc1ccc(S(=O)(=O)c2cnc3cc(Cl)ccc3c2N2CCOCC2)cc1Cl [Compound 330]
7,> 6.70,O=S(=O)(c1ccc(Cl)c(Cl)c1)c1cnc2cc(Cl)ccc2c1N1CCOCC1 [Compound 332]
8,> 6.70,O=S(=O)(c1ccc(F)c(Cl)c1)c1cnc2cc(Cl)ccc2c1N1CCOCC1 [Compound 334]
9,6.30 to 6.70,O=S(=O)(c1cc(Cl)cc(Cl)c1)c1cnc2c(F)cccc2c1N1CCOCC1 [Compound 335]
10,6.30 to 6.70,O=S(=O)(c1cc(F)cc(F)c1)c1cnc2c(F)cccc2c1N1CCOCC1 [Compound 336]
11,6.30 to 6.70,O=S(=O)(c1ccc(Cl)cc1)c1cnc2c(F)cccc2c1N1CCOCC1 [Compound 339]
12,6.30 to 6.70,Cc1ccc(S(=O)(=O)c2cnc3c(F)cccc3c2N2CCOCC2)cc1F [Compound 341]
13,6.30 to 6.70,O=S(=O)(c1ccc(F)c(F)c1)c1cnc2c(F)cccc2c1N1CCOCC1 [Compound 343]
14,> 6.70,O=S(=O)(c1ccc(F)c(Cl)c1)c1cnc2c(F)cccc2c1N1CCOCC1 [Compound 344]
15,> 6.70,O=S(=O)(c1ccc(Cl)c(Cl)c1)c1cnc2c(F)cccc2c1N1CCOCC1 [Compound 345]

# — patent publication US20090270371A1, “QUINOLINE DERIVATIVES USEFUL IN THE TREATMENT OF MGLUR5 RECEPTOR-MEDIATED DISORDERS” (priority 2005, published 2009)
